Reference: the NIST ThermoML archive (doi:10.1021/acs.jced.8b00662)

Assay: xn = mol fraction of the nth substance listed
Settings: 100 kPa, Liquid; for viscosity: Falling or rolling sphere viscometry; for mass density: Vibrating tube method

OCC1CC1 [cyclopropylmethanol] + c1ccc2c(c1)CCCC2
Settings	mass density [kg/m3]	viscosity [mPa·s]
293.15 K, x2 = 0	913.02	3.988
293.15 K, x2 = 0.0993	921.89	3.498
293.15 K, x2 = 0.1972	929.26	3.134
293.15 K, x2 = 0.3008	936.02	2.837
293.15 K, x2 = 0.3978	941.84	2.622
293.15 K, x2 = 0.4986	947.21	2.449
293.15 K, x2 = 0.6031	952.27	2.318
293.15 K, x2 = 0.7031	956.72	2.229
293.15 K, x2 = 0.7981	960.63	2.182
293.15 K, x2 = 0.901	964.72	2.164
298.15 K, x2 = 0	908.96	3.455
298.15 K, x2 = 0.0993	917.77	3.039
298.15 K, x2 = 0.1972	925.12	2.734
298.15 K, x2 = 0.3008	931.86	2.49
298.15 K, x2 = 0.3978	937.67	2.313
298.15 K, x2 = 0.4986	943.05	2.173
298.15 K, x2 = 0.6031	948.12	2.068
298.15 K, x2 = 0.7031	952.59	1.997
298.15 K, x2 = 0.7981	956.53	1.963
298.15 K, x2 = 0.901	960.66	1.952
303.15 K, x2 = 0	904.87	3.009
303.15 K, x2 = 0.0993	913.62	2.656
303.15 K, x2 = 0.1972	920.94	2.402
303.15 K, x2 = 0.3008	927.67	2.2
303.15 K, x2 = 0.3978	933.47	2.053
303.15 K, x2 = 0.4986	938.85	1.94
303.15 K, x2 = 0.6031	943.94	1.855
303.15 K, x2 = 0.7031	948.44	1.8
303.15 K, x2 = 0.7981	952.41	1.774
303.15 K, x2 = 0.901	956.59	1.77
308.15 K, x2 = 0	900.74	2.635
308.15 K, x2 = 0.0993	909.43	2.338
308.15 K, x2 = 0.1972	916.73	2.123
308.15 K, x2 = 0.3008	923.44	1.958
308.15 K, x2 = 0.3978	929.24	1.836
308.15 K, x2 = 0.4986	934.63	1.747
308.15 K, x2 = 0.6031	939.74	1.675
308.15 K, x2 = 0.7031	944.26	1.633
308.15 K, x2 = 0.7981	948.28	1.613
308.15 K, x2 = 0.901	952.52	1.618
313.15 K, x2 = 0	896.59	2.321
313.15 K, x2 = 0.0993	905.22	2.068
313.15 K, x2 = 0.1972	912.49	1.889
313.15 K, x2 = 0.3008	919.19	1.754
313.15 K, x2 = 0.3978	925	1.651
313.15 K, x2 = 0.4986	930.4	1.579
313.15 K, x2 = 0.6031	935.53	1.521
313.15 K, x2 = 0.7031	940.09	1.491
313.15 K, x2 = 0.7981	944.15	1.474
313.15 K, x2 = 0.901	948.45	1.485
318.15 K, x2 = 0	892.38	2.054
318.15 K, x2 = 0.0993	900.96	1.84
318.15 K, x2 = 0.1972	908.2	1.688
318.15 K, x2 = 0.3008	914.89	1.577
318.15 K, x2 = 0.3978	920.7	1.492
318.15 K, x2 = 0.4986	926.13	1.433
318.15 K, x2 = 0.6031	931.29	1.387
318.15 K, x2 = 0.7031	935.88	1.366
318.15 K, x2 = 0.7981	939.99	1.355
318.15 K, x2 = 0.901	944.36	1.369
323.15 K, x2 = 0	888.17	1.825
323.15 K, x2 = 0.0993	896.69	1.644
323.15 K, x2 = 0.1972	903.9	1.517
323.15 K, x2 = 0.3008	910.59	1.423
323.15 K, x2 = 0.3978	916.41	1.355
323.15 K, x2 = 0.4986	921.85	1.305
323.15 K, x2 = 0.6031	927.06	1.271
323.15 K, x2 = 0.7031	931.69	1.254
323.15 K, x2 = 0.7981	935.85	1.235
323.15 K, x2 = 0.901	940.3	1.263
328.15 K, x2 = 0	883.86	1.629
328.15 K, x2 = 0.0993	892.34	1.476
328.15 K, x2 = 0.1972	899.54	1.369
328.15 K, x2 = 0.3008	906.23	1.291
328.15 K, x2 = 0.3978	912.06	1.22
328.15 K, x2 = 0.4986	917.54	1.195
328.15 K, x2 = 0.6031	922.78	1.169
328.15 K, x2 = 0.7031	927.49	1.156
328.15 K, x2 = 0.7981	931.68	1.157
328.15 K, x2 = 0.901	936.23	1.174
333.15 K, x2 = 0	879.52	1.46
333.15 K, x2 = 0.0993	887.95	1.331
333.15 K, x2 = 0.1972	895.13	1.241
333.15 K, x2 = 0.3008	901.83	1.176
333.15 K, x2 = 0.3978	907.69	1.131
333.15 K, x2 = 0.4986	913.2	1.1
333.15 K, x2 = 0.6031	918.5	1.08
333.15 K, x2 = 0.7031	923.23	1.071
333.15 K, x2 = 0.7981	927.51	1.076
333.15 K, x2 = 0.901	932.14	1.094
338.15 K, x2 = 0	875.1	1.316
338.15 K, x2 = 0.0993	883.49	1.205
338.15 K, x2 = 0.1972	890.66	1.13
338.15 K, x2 = 0.3008	897.37	1.078
338.15 K, x2 = 0.3978	903.28	1.041
338.15 K, x2 = 0.4986	908.82	1.015
338.15 K, x2 = 0.6031	914.15	1.004
338.15 K, x2 = 0.7031	918.94	0.996
338.15 K, x2 = 0.7981	923.3	1.003
338.15 K, x2 = 0.901	928.03	1.024
343.15 K, x2 = 0	870.62	1.19
343.15 K, x2 = 0.0993	878.98	1.095
343.15 K, x2 = 0.1972	886.15	1.033
343.15 K, x2 = 0.3008	892.87	0.99
343.15 K, x2 = 0.3978	898.8	0.961
343.15 K, x2 = 0.4986	904.39	0.941
343.15 K, x2 = 0.6031	909.78	0.933
343.15 K, x2 = 0.7031	914.63	0.931
343.15 K, x2 = 0.7981	919.07	0.941
343.15 K, x2 = 0.901	923.91	0.961
